Test results published in patent US20050239808A1, “Active substances for the treatment, diagnosis and prophylaxis of diseases in which abnormal protein structures occur” (priority 2002, published 2005).

Columns and labels:
[1] = Solubility of aminopyrazoles in DMSO and after dilution in sodium phosphate buffer
Method: These aminopyrazoles were dissolved in 100% DMSO. […] In order to eliminate particles, these dissolved solutions of aminopyrazoles were resolved in 10 mM of sodium phosphate buffer pH 7.2 to a final DMSO concentration of 5%. They were then filtered with Microcon YM 10 tubes.

[2] = target: T1, Aβ(1-42) (Homo sapiens, UniProt P05067); assay: Aβ(1-42) aggregation assay by Fluorescence Correlation Spectroscopy (FCS); type: biochemical; conditions: 5.5-11 μM Aβ(1-42) + 22 nM oregon green-labelled Aβ(1-42), 10 nM of aminopyrazole (referring to the initial solution), 5-10% DMSO, 10 mM sodium phosphate buffer pH 7.2, room temperature, 12-72 hours
T1 construct: Aβ(1-42) was used as the model molecule in the aggregation experiments

[3] = target: T1, Aβ(1-42); type: biochemical; conditions: FIG. 10; 32.8 μM and 16.4 μM Aβ(1-42), 20 mM AmpOx, 6 h at room temperature, 6% DMSO, 100,000 g centrifugation
Method: Aβ(1-42) solutions were incubated under various conditions and their aggregation was analysed by a 100,000 g spin in an ultracentrifuge.
The Aβ(1-42) dissolved in 100% DMSO was diluted to a concentration of 11 μM in 10 mM of sodium phosphate buffer pH 7.2. All samples contained 22 nM of oregon green labelled Aβ(1-42) and were incubated for 48 hours at room temperature in 10% DMSO.
Aβ(1-42) was dissolved in 100% DMSO and diluted to a concentration of 32.8 μM and 16.4 μM in 10 mM of sodium phosphate buffer pH 7.2. The protein was incubated at room temperature for 6 h in 6% DMSO with and without 20 mM AmpOx.

T1 sequence (P05067 672-713 limits assumed): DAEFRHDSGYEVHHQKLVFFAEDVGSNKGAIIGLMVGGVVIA

Compound | solubility in 100% DMSO [1] | inhibition of Aβ(1-42) aggregation [2] | distribution of Aβ(1-42) between supernatant (S) and pellet (P), compared with the Trimer result [3]
Cc1cc(NC(=O)C(=O)Nc2cc(C)[nH]n2)n[nH]1 [AmpOx, N,N′-Bis-(−5-methyl-1H-pyrazole-3-yl)-oxalic acid diamide] | not completely soluble | able to disturb or inhibit the aggregation of Aβ(1-42) | almost identical results
COC(=O)c1cc(NC(=O)c2cc(NC(=O)c3cc([N+](=O)[O-])[nH]n3)[nH]n2)[nH]n1 [Trimer] |  | able to disturb or inhibit the aggregation of Aβ(1-42) | 
